In patent US20120116027A1, “PROCESS FOR THE PURIFICATION OF HUMAN GROWTH HORMONE POLYPEPTIDES USING AFFINITY RESINS COMPRISING SPECIFIC LIGANDS” (priority 2008, published 2012):
Where a SMILES comes first, the peptide text is derived from it. [ ]: non-standard residue; d: D form. The star is where a group is joined. X1 = O=C(c1ccc2ccccc2c1O)*; Dap = NC[CH](N)C(=O)O; Aib = CC(C)(N)C(=O)O

How the values were obtained:
wild type hGH = wild type hGH (Homo sapiens, UniProt P01241); experiment: Binding capacity for wild type hGH of ligands synthesized on Fractogel Amino (1 mL columns); details: ligand on Fractogel Amino; for Measured binding capacity (mg hGH/mL resin): load 5 mg/mL hGH in 25 mM Tris-HCl pH 7.50, 0.5 mL/min, elution gradient 1M NaCl/25 mM Tris pH 7.5
Experimental: (§1) were stepwise synthesized on Fractogel Amino (Merck) with amine loading 0.16 mmol/g and particle size 40-90 μm. The resins were washed thoroughly with DMF, DCM, and ethanol and packed in 1 mL columns and washed with 0.2 M NaOH and then with 20% ethanol, and equilibrated with 25 mM Tris-HCl at pH=7.50 (buffer A).
Binding capacity for wild type hGH was measured for each resin sample by • a) loading the column with a 5 mg/mL solution of hGH in buffer A at a flow rate of 0.5 mL/min, • b) washing the column with at least 10 column volumes of buffer A until a steady low UV absorbance of the buffer leaving the column was observed, • c) eluting the protein by applying a gradient of 1M NaCl/25 mM Tris at pH=7.5 (buffer B) • d) cleaning the column with 0.2 M NaOH, then with buffer B, and then with buffer A.
The binding capacity was calculated by integrating the UV signal during step (c) and indicated for each ligand above.

hGH [1] = molecular target: T1, hGH (Homo sapiens, UniProt P01241); experiment: Resin selectivity test with hGH fermentation broth, judged by SDS page gels of the eluate; details: ligand on Fractogel Amino, hGH fermentation broth diluted five times with buffer A
T1 construct: made in house; host or cells: E. coli
Experimental: as §1
Resin selectivity was tested by • (a) loading the column with hGH fermentation broth diluted five times with buffer A • (b) washing the column with at least 10 column volumes of buffer A until a steady low UV absorbance of the buffer leaving the column was observed, • (c) eluting the protein by applying a gradient of buffer B • (d) cleaning the column with 0.2 M NaOH, then with buffer B, and then with buffer A.
“Observed selectivity” was judged by SDS page gels of the eluate […] and indicated for each ligand above. An example of a resin with “very good” selectivity (ligand L11 on Fractogel) and an example of a resin with “moderate” selectivity (ligand L6 on Fractogel) are given in FIG. 3.

hGH [2] = molecular target: T1, hGH; experiment: Evaluation of ligand synthesized directly on Fractogel in 5 mL scale (capacity, recovery, purity); type: binding; details: load 50 mM BisTris pH 6.25, elution 50 mM BisTris pH 8.00 gradient; for Dynamic 10% BT capacity for micro-filtrate hGH / Dynamic 10% BT capacity for pure hGH: 2 mL/min
Experimental: Ligand L14 from Example 1 was synthesized directly on Fractogel. The resin was evaluated in 5 mL scale.
Load buffer: 50 mM BisTris at pH 6.25
Elution buffer: 50 mM BisTris at pH 8.00 gradient
Temperature: 15° C. (20° measured by Äkta)
Ligand L16 from Example 1 was synthesized directly on Fractogel Amino. This resin was evaluated in 5 mL scale.

hGH [3] = molecular target: T1, hGH; experiment: Affinity purification of hGH from E. coli micro-filtrate with ligand L10 resin (purity and recovery); details: load 50 mM BisTris-HCl pH 6.25
Experimental: (§2) Ligand L10 from Example 1 was synthesized step-wise on Fractogel Amino M (Supplied by Merck KgaA), and the resulting affinity resin was packed in Tricorn 5/50, 1 mL (GE Healthcare).
(§3) hGH micro-filtrate buffer: 2.61 mg/mL hGH E. coli micro-filtrate from hGH harvest. A frozen 15 mL sample was thawed at room temperature and filtered using a syringe-driven filter ([…]). Diluted to 0.52 mg hGH/mL with Buffer A.
An elution buffer of 200 mM Tris-HCl, pH 8.00, 1 M NaCl, 30% propylene glycol results in high recovery of hGH. This elution buffer and the aforementioned 50 mM BisTris-HCl, pH 6.5 load buffer was used. The column was overloaded with hGH. The results from an experiment using these conditions are shown below:
The loading buffer was changed to 50 mM BisTris-HCl at pH 6.25 and different elution buffers at pH 7.25, 7.50 and 8.00 were tested.
Chromatograms and gels are shown in FIG. 8 for the run with the following conditions: Load buffer: 50 mM BisTris at pH 6.25 and Elution buffer: 50 mM BisTris at pH 8.00

hGH [4] = experiment: Dynamic 10% BT capacity of ligand L10 on Fractogel Amino M; type: binding, human; details: load 50 mM BisTris-HCl pH 6.50, 0.5 mL/min (150 cm/h), 15° C.
Experimental: as §2
(§4) hGH standard: hGH was dissolved to 20 mg/mL in freshly made 50 mM NH41-1CO3, then diluted to 2 or 3.3 mg/mL with Buffer A (50 mM Tris-HCl, pH=7.50, T=15° C. (20° C. in Äkta)).
as §3
(§5) Buffer A1: 50 mM BisTris-HCl, pH=6.50, T=15° C. (20° C. in Äkta), flow 0.5 mL/min (150 cm/h)
(§6) Buffer Z1: 25 mM Tris-HCl, 1M NaCl, pH=7.50, T=15° C. (20° C. in Äkta), flow 0.5 mL/min (150 cm/h)

hGH [5] = molecular target: T1, hGH; experiment: as above; type: binding; details: load 50 mM BisTris-HCl pH 6.50, 0.5 mL/min (150 cm/h), 15° C.
Experimental: as §2, §4, §3, §5, §6

Sequence of wild type hGH (P01241 27-217): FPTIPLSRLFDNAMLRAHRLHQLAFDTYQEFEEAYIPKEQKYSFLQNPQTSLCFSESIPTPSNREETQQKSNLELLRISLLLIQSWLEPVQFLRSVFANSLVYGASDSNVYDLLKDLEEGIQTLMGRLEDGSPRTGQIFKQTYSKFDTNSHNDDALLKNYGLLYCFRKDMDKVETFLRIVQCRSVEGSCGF
T1 sequence (P01241 27-217): as above

Row | Structure (SMILES) | Measured binding capacity (mg hGH/mL resin) (wild type hGH) | Observed selectivity (hGH [1]) | also measured
1 | N=C(N)NCCC[C@H](N)C(=O)N[C@@H](Cc1ccc(O)cc1)C(=O)N[C@@H](CNC(=O)C1c2ccccc2Oc2ccccc21)C(=O)O [L1] | 14 mg hGH/mL resin | Moderate | –
2 | N=C(N)NCCC[C@H](NC(=O)[C@@H](N)Cc1ccccc1)C(=O)N[C@@H](CNC(=O)C1c2ccccc2Oc2ccccc21)C(=O)O [L2] | 7 mg hGH/mL resin | Good | –
3 | N[C@@H](Cc1ccc(O)cc1)C(=O)N[C@@H](Cc1ccccc1)C(=O)N[C@@H](CNC(=O)C1c2ccccc2Oc2ccccc21)C(=O)O [L3] | 5 mg hGH/mL resin | Moderate | –
4 | Cc1nn(-c2ccccc2)nc1C(=O)NC[C@H](NC(=O)[C@H](Cc1ccccc1)NC(=O)[C@@H](N)Cc1c[nH]c2ccccc12)C(=O)O [L5] | 2 mg hGH/mL resin | Good | –
5 | NCCCC[C@H](NC(=O)[C@@H](N)Cc1ccccc1)C(=O)N[C@@H](CNC(=O)c1scc(S(=O)(=O)c2ccccc2)c1N)C(=O)O [L6] | 13 mg hGH/mL resin | Moderate | –
6 | N[C@@H](Cc1ccccc1)C(=O)N[C@@H](Cc1ccccc1)C(=O)N[C@@H](CNC(=O)C1c2ccccc2Oc2ccccc21)C(=O)O [L4] | 1 mg hGH/mL resin | Good | –
7 | CC(C)(NC(=O)C(CNC(=O)c1ccc2ccccc2c1O)NC(=O)C(Cc1ccc(O)cc1)NC(=O)C(N)CCCNC(=N)N)C(=O)O (stereo not shown) [L19] (H-RY[Dap](X1)[Aib]-OH; configuration not given here) | – | – | binding capacity (wild type hGH; same procedures as Example 1): < 0.5 mg/mL
8 | CC[C@@H](C)[C@H](NC(=O)[C@@H](N)Cc1c[nH]c2ccccc12)C(=O)N[C@@H](CNC(=O)c1scc(S(=O)(=O)c2ccccc2)c1N)C(=O)O [L7] | 2 mg hGH/mL resin | Good | –
9 | CC[C@H](C)[C@H](N)C(=O)N[C@@H](Cc1ccc(O)cc1)C(=O)N[C@@H](CNC(=O)c1scc(S(=O)(=O)c2ccccc2)c1N)C(=O)O [L8] | 6 mg hGH/mL resin | Moderate | –

More lines, main results first:

Row | Measured binding capacity (mg hGH/mL resin) (wild type hGH) | Observed selectivity (hGH [1]) | Structure (SMILES) | also measured
10 | 2 mg hGH/mL resin | Very good | N[C@@H](Cc1ccccc1)C(=O)N[C@@H](Cc1ccccc1)C(=O)N[C@@H](CNC(=O)c1c2c(nc3ccccc13)CCCC2)C(=O)O [L11] | –
11 | >10 mg hGH/mL resin | Moderate | CC[C@@H](C)[C@H](N)C(=O)N[C@@H](CCCCN)C(=O)N[C@@H](CNC(=O)c1c(C)nc2ccccn12)C(=O)O [L16] | Purity (hGH [2]): 70%; Dynamic 10% BT capacity for micro-filtrate hGH (hGH [2]): 5.7 mg/mL; Dynamic 10% BT capacity for pure hGH (hGH [2]): 11.9 mg/mL
12 | >5 mg hGH/mL resin | Good | Cc1nc2ccccn2c1C(=O)NC[C@H](NC(=O)[C@H](CCCNC(=N)N)NC(=O)[C@@H](N)Cc1ccccc1)C(=O)O [L15] | –
13 | <0.5 mg hGH/mL resin | – | Cc1ccc([N+](=O)[O-])c(C(=O)NCC(NC(=O)C(Cc2c[nH]cn2)NC(=O)C(N)CC(=O)O)C(=O)O)c1 (stereo not shown) [L18] | –
14 | <0.5 mg hGH/mL resin | – | CC(O)C(N)C(=O)NC(CC(=O)O)C(=O)NC(CNC(=O)c1ccc2nccnc2c1)C(=O)O (stereo not shown) [L17] | –
15 | 2 mg hGH/mL resin | Good | O=C(NC[C@H](NC(=O)[C@H]1CCCN1C(=O)[C@H]1CCCN1)C(=O)O)c1c2c(nc3ccccc13)CCCC2 [L12] | –
16 | >10 mg hGH/mL resin | Moderate | C[C@@H](O)[C@H](NC(=O)[C@@H](N)CCCNC(=N)N)C(=O)N[C@@H](CNC(=O)c1c2c(nc3ccccc13)CCCC2)C(=O)O [L13] | –
17 | 10 mg hGH/mL resin | Good | N=C(N)NCCC[C@H](N)C(=O)N[C@@H](Cc1ccccc1)C(=O)N[C@@H](CNC(=O)C1CC(=O)c2ccccc21)C(=O)O (stereo partly shown) [L9] | –
18 | 3 mg hGH/mL resin | Very good | CC[C@H](C)[C@H](N)C(=O)N[C@@H](Cc1ccccc1)C(=O)N[C@@H](CNC(=O)c1c2c(nc3ccccc13)CCCC2)C(=O)O [L10] | Purity of eluate (hGH [3]; Elution pH 7.25): 91%; Purity of eluate (hGH [3]; Elution pH 7.50): 85%; Purity of eluate (hGH [3]; Elution pH 8.00): 85%; dynamic 10% BT capacity for hGH micro-filtrate (hGH [4]): 3.22 mg/mL; Dynamic 10% BT capacity (purified hGH) (hGH [5]): 6.7 mg/mL
19 | >5 mg hGH/mL resin | Good | NCCCC[C@H](N)C(=O)N[C@@H](Cc1ccccc1)C(=O)N[C@@H](CNC(=O)c1c2c(nc3ccccc13)CCCC2)C(=O)O [L14] | Purity (hGH [2]): 71%; Dynamic 10% BT capacity for micro-filtrate hGH (hGH [2]): 6.7 mg/mL; Dynamic 10% BT capacity for pure hGH (hGH [2]): 16.3 mg/mL
